Test [1] has as its target T1, Acetylcholinesterase (Homo sapiens, UniProt P22303). The test can be described thus: Binding affinity to AChE (unknown origin) assessed as inhibition constant.
In test [2] the target is ATP-dependent translocase ABCB1 (Homo sapiens, UniProt P08183). In words: Inhibition of p-glycoprotein (unknown origin).
In another test the test system is HepG2. In words: Antiproliferative activity against human HepG2 cells assessed as reduction in cell viability incubated for 48 hrs by MTT assay. In kind it is functional, cell-based. The settings on record: HepG2, 48 h.
The next test has as its system MCF7. In words: Antiproliferative activity against human MCF7 cells assessed as reduction in cell viability incubated for 48 hrs by MTT assay. The class given is functional, cell-based. The following applies: MCF7, 48 h. (Tetrazolium dyes change colour on reduction, which living cells bring about.)
Test [3] has as its target T1, Acetylcholinesterase. In words: Inhibition of human AChE using acetylthiocholine iodide as substrate after 15 mins by Ellman's method.
Test [4] addresses T2, Amine oxidase [flavin-containing] B (Homo sapiens, UniProt P27338).
T2 sequence (P27338 whole entry): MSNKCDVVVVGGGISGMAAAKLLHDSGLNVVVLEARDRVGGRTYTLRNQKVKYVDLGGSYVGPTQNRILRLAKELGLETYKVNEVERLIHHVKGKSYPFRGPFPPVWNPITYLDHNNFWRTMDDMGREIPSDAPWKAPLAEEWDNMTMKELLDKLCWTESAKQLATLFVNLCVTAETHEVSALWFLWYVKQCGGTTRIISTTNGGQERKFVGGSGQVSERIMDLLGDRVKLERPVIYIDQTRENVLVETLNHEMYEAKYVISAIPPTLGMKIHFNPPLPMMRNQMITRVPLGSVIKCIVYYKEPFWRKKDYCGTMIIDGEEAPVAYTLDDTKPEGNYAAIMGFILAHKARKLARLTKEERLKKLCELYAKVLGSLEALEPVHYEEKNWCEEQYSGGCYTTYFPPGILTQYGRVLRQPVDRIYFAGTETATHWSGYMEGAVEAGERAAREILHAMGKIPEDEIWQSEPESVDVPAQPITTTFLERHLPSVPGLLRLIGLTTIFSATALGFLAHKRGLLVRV
In words: Inhibition of MAO-B (unknown origin).

The pKi is the negative decadic logarithm of the Ki, by convention in mol/L. The pIC50 is −log10 of the IC50, conventionally taken in molar units.

Structures are written as SMILES. pIC50, pKi: −log10 of the molar value. A value given as a limit tells only on which side of the number the result lay.

T1 sequence (P22303 whole entry): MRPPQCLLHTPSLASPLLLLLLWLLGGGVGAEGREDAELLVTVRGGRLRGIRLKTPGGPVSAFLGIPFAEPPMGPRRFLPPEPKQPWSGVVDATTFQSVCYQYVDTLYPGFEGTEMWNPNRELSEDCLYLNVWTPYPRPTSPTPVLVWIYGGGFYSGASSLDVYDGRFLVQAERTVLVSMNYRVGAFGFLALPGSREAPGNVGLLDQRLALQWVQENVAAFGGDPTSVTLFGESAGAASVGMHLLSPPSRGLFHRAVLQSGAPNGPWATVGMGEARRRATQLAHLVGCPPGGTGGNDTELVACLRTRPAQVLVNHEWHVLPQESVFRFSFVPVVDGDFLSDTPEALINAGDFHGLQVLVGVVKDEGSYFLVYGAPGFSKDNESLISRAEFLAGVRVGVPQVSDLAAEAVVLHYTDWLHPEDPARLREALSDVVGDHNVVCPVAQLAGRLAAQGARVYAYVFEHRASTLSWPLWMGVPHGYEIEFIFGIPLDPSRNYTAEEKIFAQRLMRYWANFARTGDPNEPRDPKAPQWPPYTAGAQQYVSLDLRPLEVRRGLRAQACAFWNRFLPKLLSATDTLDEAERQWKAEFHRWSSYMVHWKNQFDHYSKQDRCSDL
Sequence of ATP-dependent translocase ABCB1 (P08183 whole entry): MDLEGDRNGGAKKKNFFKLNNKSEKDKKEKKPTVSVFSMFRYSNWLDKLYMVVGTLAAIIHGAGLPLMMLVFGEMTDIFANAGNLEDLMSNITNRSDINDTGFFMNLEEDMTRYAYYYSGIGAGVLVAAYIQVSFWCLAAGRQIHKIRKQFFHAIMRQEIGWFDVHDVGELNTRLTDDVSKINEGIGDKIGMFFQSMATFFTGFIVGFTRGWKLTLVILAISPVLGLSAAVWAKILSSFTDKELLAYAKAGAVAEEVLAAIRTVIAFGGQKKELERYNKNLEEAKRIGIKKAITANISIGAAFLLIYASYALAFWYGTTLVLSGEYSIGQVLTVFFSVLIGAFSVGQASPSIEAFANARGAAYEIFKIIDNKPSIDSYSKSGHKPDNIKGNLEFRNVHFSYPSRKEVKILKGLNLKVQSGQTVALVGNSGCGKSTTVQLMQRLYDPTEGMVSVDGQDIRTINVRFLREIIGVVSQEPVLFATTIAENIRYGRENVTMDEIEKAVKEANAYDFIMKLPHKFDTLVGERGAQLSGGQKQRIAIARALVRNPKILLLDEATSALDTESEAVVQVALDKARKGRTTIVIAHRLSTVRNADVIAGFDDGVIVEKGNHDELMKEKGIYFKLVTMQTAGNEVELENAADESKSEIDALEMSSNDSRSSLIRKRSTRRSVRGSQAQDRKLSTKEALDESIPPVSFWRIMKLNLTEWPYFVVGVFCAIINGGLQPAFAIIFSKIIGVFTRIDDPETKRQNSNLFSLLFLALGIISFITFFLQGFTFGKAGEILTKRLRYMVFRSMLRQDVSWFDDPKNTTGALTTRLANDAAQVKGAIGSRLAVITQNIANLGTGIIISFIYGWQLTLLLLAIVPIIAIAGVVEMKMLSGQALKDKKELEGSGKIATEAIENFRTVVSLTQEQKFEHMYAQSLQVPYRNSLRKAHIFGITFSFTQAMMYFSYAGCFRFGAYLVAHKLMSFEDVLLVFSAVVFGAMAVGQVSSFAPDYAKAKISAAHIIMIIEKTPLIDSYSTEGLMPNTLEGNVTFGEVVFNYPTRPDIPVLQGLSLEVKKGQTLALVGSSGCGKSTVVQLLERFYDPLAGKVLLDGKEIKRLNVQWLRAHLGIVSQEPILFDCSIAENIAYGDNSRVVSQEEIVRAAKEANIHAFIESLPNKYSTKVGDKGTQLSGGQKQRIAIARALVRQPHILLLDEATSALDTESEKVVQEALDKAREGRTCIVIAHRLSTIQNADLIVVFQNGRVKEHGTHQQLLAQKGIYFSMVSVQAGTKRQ

As to `COCC1=C=C(c2ccc(OC)cc2)c2cc(OC)c(OC)cc2CCN(C)/C=C\1C(=O)OC`, the pKi on Acetylcholinesterase [1] was 5.31.
Take `COC(=O)/C1=C/N(C)CCc2cc(OC)c(OC)cc2C(c2ccc(OC)cc2)=C=C1c1ccccc1`: the pIC50 in test [2] was 8.38; in the test with HepG2, less than 4.00; in the test on MCF7 it was less than 4.00.
In the case of `COC(=O)/C1=C/N(C)CCc2cc(OC)c(OC)cc2C(C)=C=C1c1ccccc1`, the figures for the pIC50 (against Acetylcholinesterase [3]; in test [4]) were 4.85 and 5.15, respectively.

(Values after ChEMBL document CHEMBL6083258, “Advances in synthesis of novel annulated azecines and their unique pharmacological properties” (Eur J Med Chem, 2024).)
